MIC data for ten compounds are collected here from US7358359B2, “Antibacterial agents” (University of Washington, priority 2003, dated 2008).

In brackets after ≈: the same amount, converted by molar mass. Like-named read-outs stand apart in the source and are kept apart here. Where only a bound is given, the exact number is not on record here.

What all share (assay type): cell-based
The subject of test [1] is Pseudomonas aeruginosa cystic fibrosis isolate 1145. Kind of test: microbe, parasite or virus in culture. The procedure: (§1) Bacterial isolates were cultivated from −70° C. frozen stocks by two consecutive overnight passages at 35° C. in ambient air on 5% blood agar (Remel, Lenexa, Kans.). Clinical isolates tested were from a collection composed of isolates collected during clinical trials and recent clinical isolates obtained from various geographically diverse hospitals in the US. Quality control and primary panel strains were from the American Type Culture Collection (ATCC; Rockville, Md.), with the exception of P. aeruginosa PAO200, a strain with a deletion of the mexABoprM genes that was received from Dr. H. Schweizer.
(§2) Minimum Inhibitory Concentrations (MICs) were determined by the broth microdilution method in accordance with the National Committee for Clinical Laboratory Standards (NCCLS) guidelines. In brief, organism suspensions were are adjusted to a 0.5 McFarland standard to yield a final inoculum between 3×10^5 and 7×10^5 colony-forming units (CFU)/mL. Drug dilutions and inocula were made in sterile, cation adjusted Mueller-Hinton Broth (Remel). An inoculum volume of 100 μl was added to wells containing 100 μl of broth with 2-fold serial dilutions of drug. All inoculated microdilution trays were incubated in ambient air at 35° C. for 18-24 hours. Following incubation, the lowest concentration of the drug that prevented visible growth was recorded as the MIC.

Test [2] has as its system Pseudomonas aeruginosa cystic fibrosis isolate 3206. Put plainly: microbe, parasite or virus in culture. As to the method:
as §1, §2

For another test, the system named is P. aeruginosa 27853. Put plainly: MIC broth microdilution, standard panel: P. aeruginosa 27853. The note with it: Pseudomonas aeruginosa, standard panel of organisms. The procedure: as §1, with “Schweizer. […] Strain Z61 (ATCC 35151) is also hypersusceptible to antibacterials. It is thought that the hypersusceptibility of this strain is the result of increased permeability of its outer membrane (Angus B L et al, Antimicrobial Agents and Chemotherapy 1982 21,299-309: Outer membrane permeability in Pseudomonas aeruginosa: Comparison of a wild-type with an antibacterial-supersusceptible mutant).” for “Schweizer.”
as §2, with “MIC. Performance of the assay was monitored by the use of laboratory quality-control strains against tobramycin, that has a defined MIC spectrum, in accordance with NCCLS guidelines.” for “MIC.”
A general note: Broth dilution looks for growth in wells or tubes with falling amounts of substance.

The test system of test [3] is Stenotrophomonas maltophilia. Put plainly: MIC vs non-fermenting organisms: Stenotrophomonas maltophilia. As to conditions: Stenotrophomonas maltophilia, S. malt.; MIC key class; read-out: MIC. As to the method: as §1, §2
The test system of a further test is Escherichia coli. Kind of test: MIC vs enteric organisms: Escherichia coli clinical isolates. The note with it: Escherichia coli, MIC key class, read-out: MIC. The procedure:
as §1, §2

For the next test, the system named is Klebsiella oxytoca. Kind of test: MIC vs enteric organisms: Klebsiella oxytoca. As to conditions: K. oxy., MIC key class. The procedure:
as §1, §2

Test [4] relates to Pseudomonas aeruginosa cystic fibrosis isolate 3236. Put plainly: MIC vs cystic fibrosis isolate of P. aeruginosa 3236 (sensitive to most antibacterials). The note with it: strain 3236, Sensitive, LpxC inhibitors, MIC key class. The procedure:
as §1, §2

The test system of test [5] is Acinetobacter calcoaceticus. Put plainly: MIC vs non-fermenting organisms: Acinetobacter calcoaceticus. The note with it: Acinet. calc., MIC key class. The procedure:
as §1, §2

Another test concerns Enterobacter aerogenes. Put plainly: MIC vs enteric organisms: Enterobacter aerogenes. The note with it: Klebsiella aerogenes; E. aer.; MIC key class. The procedure:
as §1, §2

The next test has as its system Klebsiella pneumoniae. Put plainly: MIC vs enteric organisms: Klebsiella pneumoniae. The note with it: K. pneu., MIC key class. As to the method: as §1, §2
The subject of the next test is Proteus mirabilis. Kind of test: MIC vs enteric organisms: Proteus mirabilis. The note with it: P. mir., MIC key class. As to the method: as §1, §2
The mark [6] stands for this setting: strain 1145, MDR, LpxC inhibitors, MIC key class, read-out: MIC.
Where [7] appears, read: strain 3206, MDR, LpxC inhibitors, MIC key class, read-out: MIC.

In the case of `C[C@@H](O)[C@H](NC(=O)c1ccc(C#CC#Cc2ccc(NC(=O)CNc3ccccn3)cc2)cc1)C(=O)NO` [Example 801, N-{(1S,2R)-2-hydroxy-1-[(hydroxyamino)carbonyl]propyl}-4-[4-(4-{[(pyridin-2-ylamino)acetyl]amino}phenyl)buta-1,3-diynyl]benzamide], the MIC was less than 6.25 µg/mL in test [1] (setting [6]); less than 6.25 µg/mL in test [2] (setting [7]); less than 6.25 µg/mL in the test on P. aeruginosa 27853; greater than 50 µg/mL in [3]; less than 6.25 µg/mL in the test with Escherichia coli (E. coli 1619); less than 6.25 µg/mL with Escherichia coli (E. coli 2788). Besides, the MIC with Klebsiella oxytoca is less than 6.25 µg/mL; in test [4], less than 6.25 µg/mL; in [5], 6.25 to 50 µg/mL (≈ 12.2 to 97.7 µM); in the test with Enterobacter aerogenes it was 6.25 to 50 µg/mL (≈ 12.2 to 97.7 µM); in the test on Klebsiella pneumoniae it was less than 6.25 µg/mL; with Proteus mirabilis, less than 6.25 µg/mL.

`NC[C@H](NC(=O)c1ccc(C#CC#Cc2ccccc2)cc1)C(=O)NO` [Example 481, N-[(1S)-1-(aminomethyl)-2-(hydroxyamino)-2-oxoethyl]-4-(4-phenylbuta-1,3-diynyl)benzamide]: the MIC in test [1] (setting [6]) is less than 6.25 µg/mL; in test [2] (setting [7]) it was less than 6.25 µg/mL; in the test with P. aeruginosa 27853, less than 6.25 µg/mL; in [3], greater than 50 µg/mL; in the test on Escherichia coli (E. coli 1619), less than 6.25 µg/mL; with Escherichia coli (E. coli 2788) it was less than 6.25 µg/mL. For the same compound, the MIC with Klebsiella oxytoca is less than 6.25 µg/mL; in test [4] it was less than 6.25 µg/mL; in [5] it was greater than 50 µg/mL; against Enterobacter aerogenes it was greater than 50 µg/mL; against Klebsiella pneumoniae, less than 6.25 µg/mL; against Proteus mirabilis, less than 6.25 µg/mL.

For `C[C@@H](N)[C@H](NC(=O)c1ccc(C#Cc2ccccc2)cc1)C(=O)NO` [Example 13], the MIC in [1] (setting [6]) was less than 6.25 µg/mL; in [2] (setting [7]), less than 6.25 µg/mL; with P. aeruginosa 27853 it was less than 6.25 µg/mL; in [3], 6.25 to 50 µg/mL (≈ 18.5 to 148 µM); with Escherichia coli (E. coli 1619) it was less than 6.25 µg/mL; in the test with Escherichia coli (E. coli 2788) it was less than 6.25 µg/mL. For the same compound, the MIC in the test on Klebsiella oxytoca was less than 6.25 µg/mL; in [4] it was less than 6.25 µg/mL; in test [5], greater than 50 µg/mL; with Enterobacter aerogenes it was greater than 50 µg/mL; in the test on Klebsiella pneumoniae, less than 6.25 µg/mL; with Proteus mirabilis it was less than 6.25 µg/mL.

As for `C[C@@H](O)[C@H](NC(=O)c1ccc(C#CC#Cc2ccccc2)cc1)C(=O)NO` [Example 19, N-(1-(N-hydroxycarbamoyl)(1S,2R)-2-hydroxypropyl)[4-(4-phenylbuta-1,3-diynyl)phenyl]carboxamide], the MIC in test [1] (setting [6]) is less than 6.25 µg/mL; in [2] (setting [7]), less than 6.25 µg/mL; against P. aeruginosa 27853 it was less than 6.25 µg/mL; in [3] it was 6.25 to 50 µg/mL (≈ 17.2 to 138 µM); in the test with Escherichia coli (E. coli 1619), less than 6.25 µg/mL; in the test with Escherichia coli (E. coli 2788), less than 6.25 µg/mL. The MIC (against Klebsiella oxytoca; in [4]; in [5]; in the test on Enterobacter aerogenes; in the test on Klebsiella pneumoniae; against Proteus mirabilis) was less than 6.25 µg/mL each time.

For the compound `CCc1ccc(-c2ccc(C(=O)N[C@@H](CN)C(=O)NO)cc2)cc1` [Example 280, N-[(1S)-1-(aminomethyl)-2-(hydroxyamino)-2-oxoethyl]-4′-ethyl-1,1-biphenyl-4-carboxamide], the MIC in test [1] (setting [6]) was less than 6.25 µg/mL; in test [2] (setting [7]), less than 6.25 µg/mL; against P. aeruginosa 27853, less than 6.25 µg/mL; in test [3], 6.25 to 50 µg/mL (≈ 19.1 to 153 µM); in the test on Escherichia coli (E. coli 1619) it was less than 6.25 µg/mL; with Escherichia coli (E. coli 2788), less than 6.25 µg/mL. Also, the MIC is greater than 50 µg/mL against Klebsiella oxytoca; less than 6.25 µg/mL in test [4]; greater than 50 µg/mL in test [5]; greater than 50 µg/mL against Enterobacter aerogenes; 6.25 to 50 µg/mL (≈ 19.1 to 153 µM) with Klebsiella pneumoniae; 6.25 to 50 µg/mL (≈ 19.1 to 153 µM) in the test on Proteus mirabilis.

Regarding `CCc1ccc(-c2ccc(C(=O)N[C@H](C(=O)NO)[C@@H](C)N)cc2)cc1` [Example 779, N-{(1S,2R)-2-amino-1-[(hydroxyamino)carbonyl]propyl)-4′-ethyl-1,1′-biphenyl-4-carboxamide], the MIC in [1] (setting [6]) was less than 6.25 µg/mL; in [2] (setting [7]) it was less than 6.25 µg/mL; with P. aeruginosa 27853 it was less than 6.25 µg/mL; in test [3], 6.25 to 50 µg/mL (≈ 18.3 to 146 µM); in the test with Escherichia coli (E. coli 1619) it was less than 6.25 µg/mL; with Escherichia coli (E. coli 2788) it was less than 6.25 µg/mL. Further, the MIC is 6.25 to 50 µg/mL (≈ 18.3 to 146 µM) with Klebsiella oxytoca; less than 6.25 µg/mL in [4]; greater than 50 µg/mL in [5]; greater than 50 µg/mL against Enterobacter aerogenes; 6.25 to 50 µg/mL (≈ 18.3 to 146 µM) in the test with Klebsiella pneumoniae; 6.25 to 50 µg/mL (≈ 18.3 to 146 µM) in the test on Proteus mirabilis.

On to `NC[C@H](NC(=O)c1ccc(C#Cc2ccc(NC(=O)CNC3CC3)cc2)cc1)C(=O)NO` [Example 516, N-[(1S)-1-(aminomethyl)-2-(hydroxyamino)-2-oxoethyl]-4-[(4-{[(cyclopropylamino)acetyl]amino}phenyl)ethynyl]benzamide], for which the MIC in test [1] (setting [6]) is less than 6.25 µg/mL; in test [2] (setting [7]) it was less than 6.25 µg/mL; against P. aeruginosa 27853, less than 6.25 µg/mL; in test [3] it was greater than 50 µg/mL; with Escherichia coli (E. coli 1619), less than 6.25 µg/mL; in the test with Escherichia coli (E. coli 2788), 6.25 to 50 µg/mL (≈ 14.4 to 115 µM). Further, the MIC with Klebsiella oxytoca is greater than 50 µg/mL; in test [4], less than 6.25 µg/mL; in [5], greater than 50 µg/mL; with Enterobacter aerogenes it was greater than 50 µg/mL; against Klebsiella pneumoniae, greater than 50 µg/mL; with Proteus mirabilis, greater than 50 µg/mL.

With `C[C@@H](O)[C@H](NC(=O)c1ccc(-c2ccc(Br)cc2)cc1)C(=O)NO` [Example 315, 4′-bromo-N-{(1S,2R)-2-hydroxy-1-[(hydroxyamino)carbonyl]propyl}-1,1′-biphenyl-4-carboxamide], the MIC (in test [1] (setting [6]); in test [2] (setting [7]); against P. aeruginosa 27853; in test [3]; in the test on Escherichia coli (E. coli 1619); with Escherichia coli (E. coli 2788)) was less than 6.25 µg/mL throughout. Besides, the MIC against Klebsiella oxytoca was greater than 50 µg/mL; in [4], less than 6.25 µg/mL; in [5], greater than 50 µg/mL; against Enterobacter aerogenes, greater than 50 µg/mL; in the test on Klebsiella pneumoniae, greater than 50 µg/mL; against Proteus mirabilis, greater than 50 µg/mL.

`C[C@@H](O)[C@H](NC(=O)c1ccc(C#Cc2ccccc2)cc1)C(=O)NO` [Example 12, N-(1-(N-hydroxycarbamoyl)(1S,2R)-2-hydroxypropyl)[4-(2-phenylethynyl)phenyl]carboxamide]: the MIC (in test [1]; in [2]; against P. aeruginosa 27853; in [3]; in the test with Escherichia coli (E. coli 1619); with Escherichia coli (E. coli 2788)) was less than 6.25 µg/mL in each case. The MIC with Klebsiella oxytoca is less than 6.25 µg/mL; in test [4], less than 6.25 µg/mL; in test [5] it was less than 6.25 µg/mL; with Enterobacter aerogenes it was greater than 50 µg/mL; in the test on Klebsiella pneumoniae, less than 6.25 µg/mL; in the test on Proteus mirabilis it was less than 6.25 µg/mL.

For `C[C@@H](O)[C@H](NC(=O)c1ccc(C#CC#Cc2ccc(NC(=O)CNc3ccccc3)cc2)cc1)C(=O)NO` [Example 777, N-{(1S,2R)-2-hydroxy-1-[(hydroxyamino)carbonyl]propyl}-4-[4-(4-{[(phenylamino)acetyl]amino}phenyl)buta-1,3-diynyl]benzamide], the MIC in test [1] (setting [6]) is less than 6.25 µg/mL; in test [2] (setting [7]) it was less than 6.25 µg/mL; in the test with P. aeruginosa 27853, less than 6.25 µg/mL; in [3], greater than 50 µg/mL; in the test with Escherichia coli (E. coli 1619), less than 6.25 µg/mL; in the test on Escherichia coli (E. coli 2788) it was less than 6.25 µg/mL. Moreover, the MIC against Klebsiella oxytoca was less than 6.25 µg/mL; in test [4] it was less than 6.25 µg/mL; in test [5], less than 6.25 µg/mL; in the test with Enterobacter aerogenes, 6.25 to 50 µg/mL (≈ 12.2 to 97.9 µM); in the test with Klebsiella pneumoniae it was less than 6.25 µg/mL; against Proteus mirabilis, less than 6.25 µg/mL.
